Here are results for 25 molecules from ChEMBL document CHEMBL1201862, “PubChem BioAssay data set” (2004).

In assay [1] the target is T1, SUMO-activating enzyme (Homo sapiens, UniProt Q9UBT2). Put plainly: SUMOylation inhibitor hit validation, confirmation, SUMOylation inhibitor project, biochemical, AlphaScreen (AID 2018). In kind it is functional.
In assay [2] the target is T1, SUMO-activating enzyme. Put plainly: inhibitors of in vitro SUMOylation cascade, primary screen, biochemical, HTRF, uHTS (AID 2006). In kind it is protein-complex assay.
Assay [3] addresses T2, Estrogen receptor (Homo sapiens, UniProt P03372).
T2 sequence (P03372 whole entry): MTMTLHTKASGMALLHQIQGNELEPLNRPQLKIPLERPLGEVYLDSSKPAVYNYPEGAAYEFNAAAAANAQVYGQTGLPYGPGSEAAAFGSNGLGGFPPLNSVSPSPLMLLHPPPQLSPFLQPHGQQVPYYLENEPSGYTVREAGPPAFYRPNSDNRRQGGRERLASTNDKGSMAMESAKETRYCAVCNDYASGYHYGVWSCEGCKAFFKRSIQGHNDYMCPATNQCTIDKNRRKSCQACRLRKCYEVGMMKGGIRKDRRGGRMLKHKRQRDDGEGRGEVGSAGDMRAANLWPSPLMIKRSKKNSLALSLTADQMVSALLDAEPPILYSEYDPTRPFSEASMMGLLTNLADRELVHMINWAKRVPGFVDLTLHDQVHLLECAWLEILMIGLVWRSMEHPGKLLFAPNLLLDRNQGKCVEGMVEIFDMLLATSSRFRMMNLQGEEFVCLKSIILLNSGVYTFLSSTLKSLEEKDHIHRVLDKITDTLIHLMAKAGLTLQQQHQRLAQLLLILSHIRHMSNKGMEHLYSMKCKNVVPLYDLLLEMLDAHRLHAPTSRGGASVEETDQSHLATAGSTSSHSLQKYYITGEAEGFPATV

The target of assay [4] is T3, E3 ubiquitin-protein ligase XIAP (Homo sapiens, UniProt P98170). Put plainly: XIAP antagonists, biochemical, IAP family, fluorescence polarization (AID 1018). In kind it is functional.
The target in assay [5] is T3, E3 ubiquitin-protein ligase XIAP. In words: Counter Screen using XIAP-Bir3 for Chemical Antagonists of Bir1/2 domains of IAP-family anti-apoptotic proteins. [Related pubchem assays (depositor defined):AID1018, AID1449, AID1514, AID1638, AID1749, AID1750, AID488957, AID488963].
Assay [6] has as its target Voltage-dependent T-type calcium channel subunit alpha-1H (Homo sapiens, UniProt O95180). In kind it is functional.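 Further: channel activity triggered by adding a high calcium stimulation buffer.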
The nature of assay [7]: P. falciparum late gametocyte killing, dose response, luminescence (AID 1117278).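 Further: gametocytes exposed to compound for 24 hours.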 It counts as functional, cell-based.
A short description of assay [8]: Jurkat T cell cytotoxicity, dose response, cytotoxicity control for P. falciparum gametocyte viability project, luminescence (AID 1117277).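 Further: potency reflects loss of cellular ATP meaning fewer viable cells.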 It counts as functional, cell-based.
In assay [9] the target is T4, Protein skinhead-1 (Caenorhabditis elegans, UniProt P34707).
T4 sequence (P34707 whole entry): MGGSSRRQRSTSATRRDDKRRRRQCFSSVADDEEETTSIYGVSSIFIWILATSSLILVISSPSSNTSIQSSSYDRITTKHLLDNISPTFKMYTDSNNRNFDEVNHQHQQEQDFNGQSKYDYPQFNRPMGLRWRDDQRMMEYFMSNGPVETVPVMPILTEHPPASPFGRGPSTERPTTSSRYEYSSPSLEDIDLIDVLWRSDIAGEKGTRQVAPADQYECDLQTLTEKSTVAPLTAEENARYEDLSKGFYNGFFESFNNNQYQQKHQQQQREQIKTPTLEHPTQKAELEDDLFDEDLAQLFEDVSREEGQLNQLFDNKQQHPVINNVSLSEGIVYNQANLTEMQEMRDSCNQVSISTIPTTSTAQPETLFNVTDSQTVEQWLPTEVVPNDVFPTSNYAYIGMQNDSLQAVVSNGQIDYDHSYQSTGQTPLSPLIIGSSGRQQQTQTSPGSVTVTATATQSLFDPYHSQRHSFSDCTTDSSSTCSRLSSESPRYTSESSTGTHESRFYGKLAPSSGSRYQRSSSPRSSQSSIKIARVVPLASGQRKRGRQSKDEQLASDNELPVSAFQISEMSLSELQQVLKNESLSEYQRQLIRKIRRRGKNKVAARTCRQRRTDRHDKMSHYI
It counts as functional.

For assay [10], the target named is Troponin, cardiac muscle (Homo sapiens, UniProt P19429+P45379+P63316). Put plainly: Fluorescence-based biochemical high throughput dose response assay for activators of the calcium sensitivity of cardiac Regulated Thin Filaments (RTF). [Related pubchem assays (depositor defined):AID493008, AID493018, AID504382, AID504383]. It counts as protein-complex assay.
Assay [11] addresses Protein-tyrosine kinase 2-beta (Homo sapiens, UniProt Q14289).
Assay [12] addresses Estrogen receptor beta (Homo sapiens, UniProt Q92731). Put plainly: ERβ–SRC-3 coactivator interaction inhibitors, confirmation, orthogonal assay, biochemical, ELISA, streptavidin-HRP readout (AID 1060).
Assay [13] in a line: cytotoxicity toward NIH3T3 fibroblasts, dose response, counter-screen, cell-based, ATP luminescence, mouse fibroblasts (AID 2010).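 Further: cells exposed to compound for about 90 hours before reading.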 In kind it is functional.
A short description of assay [14]: inhibitors of SNCA 5'UTR-driven reporter translation, confirmation, H4 neuroglioma cells, luminescence (AID 1988). It counts as functional, cell-based.
Assay [15] deals with T5, Fatty acid synthase (Homo sapiens, UniProt P49327). In words: FAS thioesterase domain inhibitors, dose response, biochemical, endpoint fluorescence intensity, uHTS hits (AID 624327).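 Further: fluorescence from hydrolysis of an O-methyl fluorescein acyl ester substrate by the enzyme.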 In kind it is functional.
The nature of assay [16]: cells. It counts as functional.
The nature of assay [17]: HepG2 cell cytotoxicity, dose response, cytotoxicity control for non-replicating M. tuberculosis project (AID 489018). In kind it is functional. The note with it: Mycobacterium tuberculosis.
Assay [18] is described as follows: cytotoxicity in HEK-293T cells, dose response, cytotoxicity control for BCR NF-kB inhibitor project, luminescence, B-cell screen hits (AID 489021).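 Further: HEK-293T cells carrying an NF-kB luciferase reporter; cells exposed to compound for about 14 hours before viability readout.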 It counts as functional, cell-based.
Assay [19] is described as follows: inhibitors of firefly luciferase expression or activity, dose response, H4 neuroglioma cells, luminescence (AID 1990). In kind it is functional, cell-based.
The nature of assay [20]: inhibitors of intracellular T. cruzi replication, confirmation, NIH3T3 host cells, beta-gal luminescence (AID 2044).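 Further: intracellular parasites grown in NIH/3T3 mouse fibroblasts as host cells; luminescent beta-galactosidase reporter signal from transgenic T. cruzi replicating inside host cells; inhibitors lower the luminescence signal.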 In kind it is functional, cell-based.
In assay [21] the target is T5, Fatty acid synthase. In words: FAS thioesterase domain inhibitors, dose response, biochemical, kinetic fluorescence intensity (AID 624326).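 Further: rate of fluorescence rise from hydrolysis of a fluorogenic O-methyl fluorescein ester substrate.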 It counts as functional.
Assay [22] in a line: Luminescence Cell-Based Dose Response HTS to Identify Inhibitors of 5'UTR Stem-Loop Driven Prion Protein mRNA Translation in H4 Neuroglioblastoma Cells. [Related pubchem assays: 1827 (Project Summary), 1813 (Primary HTS)]. It counts as functional.
Assay [23] can be described thus: THP-1 cell cytotoxicity, dose response, cytotoxicity control for non-replicating M. tuberculosis project (AID 489025). In kind it is functional.
Assay [24] in a line: Vero E6 cell cytotoxicity, dose response, cytotoxicity control for non-replicating M. tuberculosis project, secondary assay (AID 492998). The note with it: Vero C1008. It counts as functional, VeroE6.
Assay [25] is described as follows: HEp-2 cell cytotoxicity, dose response, cytotoxicity control for RSV inhibitor project, HTS (AID 2410). It counts as functional. The note with it: human respiratory syncytial virus.
In assay [26] the test system is INS1. Put plainly: beta cell apoptosis inhibitors, cytokine rescue, dose response, luminescence, retest (AID 449756).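 Further: cell death triggered by IL-1 beta plus TNF-alpha plus IFN-gamma mixture; protective hits raise ATP signal compared with cytokine alone wells.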 It counts as functional, cell-based. To be noted: Rattus norvegicus.
Assay [27] in a line: MC4R antagonists, dose response, counter-screen for LGR2 antagonist project, cell-based, plate reader, cherry pick (AID 743444).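 Further: transfected HEK 293 cells stimulated with alpha-MSH peptide; potency of inhibitors of the alpha-MSH evoked signal.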 It counts as functional.
Assay [28] in a line: A549 cell cytotoxicity, dose response, cytotoxicity control, plate reader, cherry-pick, antagonist series (AID 743412). It counts as functional, cell-based.
A short description of assay [29]: HEK293 cell cytotoxicity, dose response, cytotoxicity control, plate reader, cherry-picked samples (AID 743446). It counts as functional, cell-based.
The nature of assay [30]: HepG2 cell cytotoxicity, dose response, cytotoxicity control, plate reader, cherry-pick, antagonist series (AID 743416). It counts as functional, cell-based.
The nature of assay [31]: THP-1 cell cytotoxicity, dose response, cytotoxicity control for Vif-APOBEC3G degradation inhibitor project, THP-1 cells (AID 1117359). It counts as functional. The note with it: Human immunodeficiency virus 1, THP-1.
Assay [32] has as its system HEK293. In words: inhibitors of LMP1-driven NF-kB reporter, dose response, cell-based, HEK293, luciferase, cherry-pick (AID 588343). It counts as functional. The note with it: Homo sapiens.
Assay [33] addresses Paired box protein Pax-8 (Homo sapiens, UniProt Q06710). Put plainly: inhibitors of PAX8-driven TPO luciferase reporter, dose response, RMG-I cells, cherry-pick (AID 687027).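 Further: luciferase reporter driven by Pax8 target thyroperoxidase promoter measured by SteadyGlo luminescence.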 In kind it is functional, cell-based.

Each structure is given as a SMILES string. The source made the active and inactive calls.

T3 sequence (P98170 whole entry): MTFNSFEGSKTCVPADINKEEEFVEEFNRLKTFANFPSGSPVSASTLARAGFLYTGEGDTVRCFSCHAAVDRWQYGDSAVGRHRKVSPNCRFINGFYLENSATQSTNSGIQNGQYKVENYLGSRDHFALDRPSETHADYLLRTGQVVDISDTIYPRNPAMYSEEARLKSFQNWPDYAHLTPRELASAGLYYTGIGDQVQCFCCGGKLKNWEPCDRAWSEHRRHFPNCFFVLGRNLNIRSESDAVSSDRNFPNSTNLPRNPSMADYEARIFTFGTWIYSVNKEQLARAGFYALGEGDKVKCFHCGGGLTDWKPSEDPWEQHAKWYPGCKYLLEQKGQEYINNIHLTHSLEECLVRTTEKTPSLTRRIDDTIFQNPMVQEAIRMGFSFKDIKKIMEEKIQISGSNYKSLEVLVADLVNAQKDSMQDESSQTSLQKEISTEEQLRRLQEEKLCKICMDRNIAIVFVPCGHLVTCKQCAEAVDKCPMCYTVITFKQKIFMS
Protein-tyrosine kinase 2-beta, sequence (Q14289 whole entry): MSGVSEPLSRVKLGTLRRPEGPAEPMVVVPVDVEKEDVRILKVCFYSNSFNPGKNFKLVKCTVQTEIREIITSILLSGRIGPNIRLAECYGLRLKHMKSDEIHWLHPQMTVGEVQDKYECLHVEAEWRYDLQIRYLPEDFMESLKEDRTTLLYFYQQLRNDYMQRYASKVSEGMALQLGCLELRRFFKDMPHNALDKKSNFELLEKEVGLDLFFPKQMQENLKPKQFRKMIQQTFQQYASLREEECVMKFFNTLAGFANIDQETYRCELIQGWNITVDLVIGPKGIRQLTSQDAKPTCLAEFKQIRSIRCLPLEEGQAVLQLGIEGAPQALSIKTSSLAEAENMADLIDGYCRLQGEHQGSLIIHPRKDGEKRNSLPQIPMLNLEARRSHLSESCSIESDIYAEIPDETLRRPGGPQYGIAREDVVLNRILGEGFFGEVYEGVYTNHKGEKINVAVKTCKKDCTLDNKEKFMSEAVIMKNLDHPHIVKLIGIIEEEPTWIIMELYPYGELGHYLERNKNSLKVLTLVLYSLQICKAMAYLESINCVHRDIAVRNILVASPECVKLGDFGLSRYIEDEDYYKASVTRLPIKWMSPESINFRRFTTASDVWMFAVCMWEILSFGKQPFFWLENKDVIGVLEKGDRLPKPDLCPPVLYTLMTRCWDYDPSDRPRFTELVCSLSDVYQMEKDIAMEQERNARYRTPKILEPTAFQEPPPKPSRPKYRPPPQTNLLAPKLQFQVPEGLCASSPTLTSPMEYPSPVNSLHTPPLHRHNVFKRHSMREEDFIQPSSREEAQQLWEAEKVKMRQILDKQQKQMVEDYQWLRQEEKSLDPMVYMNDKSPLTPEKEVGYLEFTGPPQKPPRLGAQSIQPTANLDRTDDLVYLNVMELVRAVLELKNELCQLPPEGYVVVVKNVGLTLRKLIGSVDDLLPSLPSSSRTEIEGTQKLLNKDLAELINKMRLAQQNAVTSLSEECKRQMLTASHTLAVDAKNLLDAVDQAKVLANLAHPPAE
Voltage-dependent T-type calcium channel subunit alpha-1H, sequence (O95180 whole entry): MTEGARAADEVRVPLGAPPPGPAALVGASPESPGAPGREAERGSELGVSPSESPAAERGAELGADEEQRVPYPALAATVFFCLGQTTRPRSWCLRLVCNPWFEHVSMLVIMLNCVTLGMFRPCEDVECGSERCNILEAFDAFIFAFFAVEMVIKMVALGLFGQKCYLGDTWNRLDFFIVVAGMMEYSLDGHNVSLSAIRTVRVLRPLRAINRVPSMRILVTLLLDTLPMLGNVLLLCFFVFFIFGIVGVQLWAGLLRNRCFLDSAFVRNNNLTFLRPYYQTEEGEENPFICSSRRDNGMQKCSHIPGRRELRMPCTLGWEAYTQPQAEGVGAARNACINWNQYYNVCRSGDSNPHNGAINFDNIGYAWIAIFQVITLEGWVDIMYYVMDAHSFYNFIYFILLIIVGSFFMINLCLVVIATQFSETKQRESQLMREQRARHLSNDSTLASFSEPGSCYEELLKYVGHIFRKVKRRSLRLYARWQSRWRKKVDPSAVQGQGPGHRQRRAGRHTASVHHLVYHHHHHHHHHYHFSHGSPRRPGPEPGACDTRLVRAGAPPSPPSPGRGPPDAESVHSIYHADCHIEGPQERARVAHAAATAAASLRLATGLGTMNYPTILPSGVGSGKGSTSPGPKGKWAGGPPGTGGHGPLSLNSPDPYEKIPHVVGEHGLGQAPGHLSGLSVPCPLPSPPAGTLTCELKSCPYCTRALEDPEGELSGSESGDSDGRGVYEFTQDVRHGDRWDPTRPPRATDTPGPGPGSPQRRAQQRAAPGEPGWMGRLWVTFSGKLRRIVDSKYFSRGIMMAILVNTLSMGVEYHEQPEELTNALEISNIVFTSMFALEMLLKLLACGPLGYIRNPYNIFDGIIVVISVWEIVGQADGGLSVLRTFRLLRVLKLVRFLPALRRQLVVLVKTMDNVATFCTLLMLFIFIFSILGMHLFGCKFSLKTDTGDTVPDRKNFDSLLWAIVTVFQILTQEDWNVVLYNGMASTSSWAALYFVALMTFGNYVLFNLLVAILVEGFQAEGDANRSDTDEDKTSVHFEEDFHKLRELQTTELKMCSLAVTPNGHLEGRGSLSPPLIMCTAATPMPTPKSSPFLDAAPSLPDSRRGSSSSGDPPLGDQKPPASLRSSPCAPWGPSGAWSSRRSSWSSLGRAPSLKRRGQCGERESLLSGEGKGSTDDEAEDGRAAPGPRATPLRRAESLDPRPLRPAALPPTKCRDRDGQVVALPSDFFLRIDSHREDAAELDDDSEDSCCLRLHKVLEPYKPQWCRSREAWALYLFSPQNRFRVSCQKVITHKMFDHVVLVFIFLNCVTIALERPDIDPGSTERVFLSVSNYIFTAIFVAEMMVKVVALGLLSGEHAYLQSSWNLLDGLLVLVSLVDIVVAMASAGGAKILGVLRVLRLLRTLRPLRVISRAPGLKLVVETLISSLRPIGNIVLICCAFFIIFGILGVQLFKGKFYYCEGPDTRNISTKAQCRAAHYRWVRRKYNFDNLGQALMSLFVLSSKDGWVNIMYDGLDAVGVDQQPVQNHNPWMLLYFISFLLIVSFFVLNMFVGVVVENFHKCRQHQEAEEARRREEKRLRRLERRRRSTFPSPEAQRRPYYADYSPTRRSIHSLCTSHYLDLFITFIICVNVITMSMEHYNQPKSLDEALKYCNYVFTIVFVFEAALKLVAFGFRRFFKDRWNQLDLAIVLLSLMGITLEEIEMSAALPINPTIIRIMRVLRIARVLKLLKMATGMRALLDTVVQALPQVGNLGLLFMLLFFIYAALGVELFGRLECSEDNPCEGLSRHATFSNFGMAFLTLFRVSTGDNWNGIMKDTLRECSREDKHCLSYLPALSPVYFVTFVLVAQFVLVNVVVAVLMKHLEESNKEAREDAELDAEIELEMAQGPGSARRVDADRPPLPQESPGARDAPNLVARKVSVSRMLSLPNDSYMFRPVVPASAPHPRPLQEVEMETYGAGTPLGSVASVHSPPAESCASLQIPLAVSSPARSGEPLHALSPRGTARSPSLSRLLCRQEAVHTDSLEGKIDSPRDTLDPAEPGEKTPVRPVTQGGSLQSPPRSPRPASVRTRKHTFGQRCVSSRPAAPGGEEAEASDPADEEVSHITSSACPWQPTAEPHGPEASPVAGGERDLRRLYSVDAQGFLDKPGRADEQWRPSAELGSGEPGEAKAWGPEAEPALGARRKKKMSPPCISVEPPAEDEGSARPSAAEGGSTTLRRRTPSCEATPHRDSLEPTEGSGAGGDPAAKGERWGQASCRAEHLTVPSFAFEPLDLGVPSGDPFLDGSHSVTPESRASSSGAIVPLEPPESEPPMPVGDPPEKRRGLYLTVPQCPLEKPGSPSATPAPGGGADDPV
Estrogen receptor beta, sequence (Q92731 whole entry): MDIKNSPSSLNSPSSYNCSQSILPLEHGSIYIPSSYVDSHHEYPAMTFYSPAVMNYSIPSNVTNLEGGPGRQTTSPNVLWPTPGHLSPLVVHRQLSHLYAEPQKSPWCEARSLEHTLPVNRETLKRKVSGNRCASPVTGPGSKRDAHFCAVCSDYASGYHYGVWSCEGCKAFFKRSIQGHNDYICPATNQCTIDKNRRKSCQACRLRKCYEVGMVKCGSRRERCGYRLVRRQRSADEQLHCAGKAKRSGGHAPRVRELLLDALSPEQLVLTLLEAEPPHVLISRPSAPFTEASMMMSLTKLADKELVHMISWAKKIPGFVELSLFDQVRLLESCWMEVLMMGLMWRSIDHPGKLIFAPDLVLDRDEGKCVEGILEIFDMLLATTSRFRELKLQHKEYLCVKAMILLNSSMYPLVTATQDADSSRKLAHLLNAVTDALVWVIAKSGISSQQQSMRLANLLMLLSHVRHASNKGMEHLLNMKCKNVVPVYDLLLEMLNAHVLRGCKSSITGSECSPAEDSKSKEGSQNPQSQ
Paired box protein Pax-8, sequence (Q06710 whole entry): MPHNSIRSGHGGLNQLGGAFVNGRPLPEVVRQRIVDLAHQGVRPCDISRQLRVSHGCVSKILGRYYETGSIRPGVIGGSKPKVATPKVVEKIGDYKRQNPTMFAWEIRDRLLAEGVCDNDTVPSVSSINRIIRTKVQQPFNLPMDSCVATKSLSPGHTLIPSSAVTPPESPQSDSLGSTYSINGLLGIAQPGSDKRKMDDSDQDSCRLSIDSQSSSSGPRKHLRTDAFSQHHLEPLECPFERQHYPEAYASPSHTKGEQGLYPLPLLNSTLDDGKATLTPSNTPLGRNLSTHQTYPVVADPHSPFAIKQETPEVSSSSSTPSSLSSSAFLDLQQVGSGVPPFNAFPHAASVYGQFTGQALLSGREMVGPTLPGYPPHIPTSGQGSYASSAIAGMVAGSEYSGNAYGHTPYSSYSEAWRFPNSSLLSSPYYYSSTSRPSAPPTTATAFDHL

In the case of `Cc1ccc(NC(=O)Cn2nc(C(=O)Nc3ccc(C)cc3)ccc2=O)cc1`, the IC50 in [1] is 30.8 µM (active); in assay [2], 18.3 µM (active).
In the case of `CC1Cc2ccccc2N1C(=O)CSc1nnc(NC(=O)Cc2cccs2)s1` (stereo not drawn), the IC50 in assay [3] is 34 µM (not active).
For the molecule `COC(=O)c1ccc(C(=O)OC)c(NS(C)(=O)=O)c1`, the IC50 in [4] was > 100 µM (not active); in assay [5], > 100 µM (inactive).
For the molecule `Cc1cccc(C(=O)N2CCN(c3ccc(C(F)(F)F)cn3)CC2)c1C`, in [6], the EC50 is 9.85 µM (active).
On the same count and under the same terms, to `Cc1ccc(-c2noc(CCC(=O)N(C)c3ccccc3C)n2)cc1` belongs 4.56 µM (active).
For `CN(C)c1nc(N(C)C)n(C(=O)c2cccs2)n1`, the IC50 in assay [7] was > 109 µM (inactive); in assay [8], > 83.3 µM (inactive).
As to `C=CCSc1nnc(-c2ccc(Cl)cc2Cl)o1`, the IC50 in [4] was > 100 µM (not active); in [9] it was 7.91 µM (active); in assay [5] it was > 100 µM (inactive).
For `O=C(CN1CCN(c2ccccc2F)CC1)Nc1cccnc1Cl`, the EC50 in assay [10] was > 71500 nM (inactive).
Take `Cc1cc(OCC(=O)Nc2ccc(N3CCN(C(=O)c4ccco4)CC3)cc2)cc(C)c1Cl`: the IC50 in [11] was 5.96 µM (active).
Consider `CCc1ccccc1N(C)C(=O)CCc1nc(-c2ccc(C)cc2)no1`, for which the EC50 in [6] is 5.38 µM (active).
Turning to `CCN1CCc2c(sc(N)c2C#N)C1`, the IC50 is 23.6 µM (not active) in assay [11] and 6.55 µM (not active) in assay [12].
`COc1ccc(CSc2nnc(Cc3sc(-c4ccccc4)nc3-c3ccccc3)o2)cc1`: the EC50 in assay [6] was 5.33 µM (active).
With `O=C(Nc1ccccc1C(=O)Nc1nnc(C(F)(F)F)s1)c1ccccc1`, the EC50 in [13] is 2.53 µM (active); in assay [14], 19.3 µM (active); in [19], > 120 µM (not active); in assay [20], 927 nM (active); in assay [22], > 120 µM (not active). Moreover, the IC50 in assay [15] was 80 µM (inactive); in assay [16] it was 15.3 µM (active); in [18], 46.2 µM (inactive); in assay [21] it was 23.5 µM (inactive). Besides, the values for the CC50 in assay [17], in assay [23] and in assay [24] were 3.9 µM (active), 3.58 µM (active) and > 20 µM (active), respectively.
In the case of `CCN(c1ccccc1)S(=O)(=O)c1ccc2ncc(C(=O)NCCOC)c(O)c2c1`, in assay [3], the IC50 was 27.9 µM (active).
For the molecule `N#Cc1ccccc1OCC(=O)OCC(=O)N1CCN(C(=O)c2ccco2)CC1`, the IC50 in assay [7] was > 109 µM (inactive); in [8], > 83.3 µM (inactive).
For the molecule `CCN(CC)C(=O)CSc1nc(N)c2c3c(sc2n1)CC(C)CC3` (stereo not drawn), the IC50 in assay [11] is listed as > 69.5 µM (not active). Besides, the CC50 in [25] was 8.74 µM (active).
On to `Cn1c(Cc2ccccc2)nnc1SCC(=O)c1cccs1`, for which the IC50 in assay [3] is on record as > 50 µM (not active).
On to `COc1cc(CNCCO)cc(Cl)c1OCc1ccc(Cl)cc1Cl`, for which the AC50 in assay [26] was 8.94 µM (active); in [27] it was 43.2 µM (active); in assay [28], 13.9 µM (active); in assay [29] it was 15.6 µM (active); in assay [30] it was 11.2 µM (active). The IC50 in [16] is 24.5 µM (active). In addition, the values for the cytotoxic concentration (CC50) in assay [17], in assay [23] and in assay [24] were 15.1 µM (active), 12.5 µM (active) and 14.1 µM (active), respectively.
Consider `Cc1ccnc(N/C=C(\C#N)c2nc(-c3cccc(Br)c3)cs2)c1`, for which, in [10], the EC50 was 761 nM (active).
Still for that read-out and setting: under `CCOC(=O)/C(=C/C=C1\Sc2cc(OCC)c(OCC)cc2N1CC)C(C)=O` stands 165 nM (active).
Regarding `Nc1nc(NC(=O)c2ccccc2)nn1-c1ccccc1`, the values for the IC50 in assay [7] and in [8] were > 109 µM (inactive) and > 83.3 µM (inactive), respectively.
For `CN(Cc1ccccc1)C(=O)c1ccc2c(c1)NC(=O)C(N1CCOCC1)S2` (stereo not drawn), the IC50 in [4] is > 100 µM (not active); in [5], > 100 µM (inactive).
For `Cc1cc(NC(=O)COC(=O)c2cccc(O)c2)no1`, the IC50 in assay [7] was > 109 µM (inactive); in [8], > 83.2 µM (inactive).
`C=C1C(=O)C2=CC1CCC(=O)C1(C)CCC(OC(C)=O)C(C)(C)C1CC2O` (stereo not drawn): the CC50 in [31] was 4.83 µM (active). The AC50 in assay [32] was 5.72 µM (active); in assay [33], 1.43 µM (active).
On to `CN(C)CCN1CCc2ccccc21`, for which the IC50 in assay [11] is 6.46 µM (active); in assay [12], 0.0579 µM (not active).
